From patent publication US20220117266A1, “NICKEL CHELATION THERAPY” (priority 2019, published 2022)
Like-named read-outs stand apart in the source and are kept apart here.

Tests used:
[1] = test system: S. Typhimurium strain 14028; assay: Typhoid fever-mouse model (survival, organ burden); assay type: in vivo, BALB/c mice
Method: The bacterial burden in livers and spleens was determined three days after infection (FIG. 5).
Mouse experiments—Infection Experiments. […] Female BALB/c mice (Charles River, Boston, Mass.) were orally inoculated individually with the S. Typhimurium strain ATCC 14028, following previously described methods (Maier et al. 2004 Infect Immun 72:6294-6299; Maier et al. 2014 PLoS One 9:e110187; Lamichhane-Khadka R et al. 2015 Infect Immun 83:311-316). Briefly, S. Typhimurium cells grown overnight in LB were harvested, washed, and suspended in sterile PBS to a final OD of OD600 0.01 (approximately 10^7 CFU/mL) and 0.1-mL volumes (10^6 bacterial cells) were introduced orally into each mouse. […] The mice were observed twice daily, and morbidity was recorded. In addition, a fourth independent experiment was performed to determine organ (liver and spleen) bacterial burdens. In this experiment, two groups of eight mice each were inoculated with S. Typhimurium 14028. […] Infection with S.T. 14028 was done as described above. Mice were euthanized 72 hours after infection. Livers and spleens were removed and homogenized in sterile PBS. Dilutions of the homogenate were plated on bismuth sulfite agar plates (BD DIFCO, Becton Dickinson, Franklin Lakes, N.J.), a selective medium for Salmonella species. Colony forming units (CFU) were counted after overnight incubation of the plates at 37° C.

[2] = target: Aβ40 peptide (Homo sapiens, UniProt P05067); assay: Thioflavin T (ThT)-based Aβ40 aggregation assay; assay type: biochemical; design: purchased rPeptides, Watkinsville, Ga., USA kit #A-1180-1; host or cells: E. coli; conditions: for remaining activity at 100 µM: DMG 100 μM; for remaining activity at 100 µM / remaining activity at 500 µM / remaining activity at 1000 µM: read-out: Relative Aβ40 aggregation rate (% control); for remaining activity at 500 µM: DMG 500 μM; for remaining activity at 1000 µM: DMG 1000 μM
Method: Amyloid Beta aggregation. […] This kit contained human recombinant Aβ40 peptide (>97% pure, as determined by manufacturer's HPLC) with the following sequence […] (SEQ ID NO:1), as provided by the manufacturer. […] The aggregation of Aβ40, was shown by the increase in fluorescence (lex=440 nm/lem=485 nm) over time, was followed for 60 min or 120 min, with reading every three or five min, using a Synergy MX reader (Biotek, Winooski, Vt.). A ThT-only background control (no Aβ40 peptide) was included in triplicate in all experiments and subtracted from all readings. The aggregation rate, defined as the increase in fluorescence per min (RFU/min), was calculated by using the formula [A(440,485) at T40min)−A(440,485) at T20min]/20.

[3] = test system: H2-uptake hydrogenase activity in S. Typhimurium 14028; assay: Amperometric hydrogenase assay on whole cells grown with DMG; assay type: cell-based
Method: H2-uptake hydrogenase activity is required for colonization in a murine model.
Amperometric hydrogenase assays. […] Cells were suspended in phosphate-buffered saline (PBS) to a final concentration of 8×10^8, per mL and added to a sealed amperometric dual-electrode chamber, with constant stirring; 100 μL of H2-saturated phosphate-buffered saline was added to the chamber and the disappearance of H2 was recorded over time. Hydrogenase activity is expressed in nmoles of H2 oxidized per minute per 10^8 cells.

[4] = test system: Helicobacter pylori 43504; assay: Antibiofilm assay on established biofilm; assay type: cell-based; conditions: DMG added for additional 24 hours
Method: Antibiofilm assay. H. pylori culture at OD600=0.15 was added to a non-tissue culture treated polystyrene 96 well plate (Falcon) and incubated at 37° C. micro-aerobically without shaking for 48 hours. After the initial incubation, the supernatant was removed from the wells and BHI+0.4% β-cyclodextran was added back to the wells with or without Na2DMG at various concentrations. The plate was then incubated an additional 24 hours. Then, the crystal violet biofilm assay was performed as above.

[5] = test system: MDR S. Typhimurium; assay: Galleria mellonella infection model; assay type: in vivo; conditions: 5 μl of 250 mM DMG (approx. 0.38 mg) injected five to ten minutes prior to bacterial challenge
Method: (§1) Attempts to establish a reliable K. pneumoniae infection model in mice failed, so an alternate animal model was chosen.
(§2) Galleria mellonella (wax moth) experiments. Wax moth larvae were obtained from local pet stores, from two different suppliers: the bug company (Ham Lake, Minn.; www.ebugco.com) and Timberline (Marion, Ill.; www.timberlinefresh.com). Larvae were stored in wood shavings at 4° C. in the dark and used within two weeks after purchase. Only larvae weighing 300±50 mg were selected for the experiments. Groups of ten larvae were used for each experiment. The site of injection (last right or left proleg) was disinfected with ethanol 70% (vol/vol) before and after each injection. A 10 μL-Hamilton syringe fitted with a […] needle (Becton Dickinson, Franklin Lakes, N.J.) was used to inject 5 μL. After injection, larvae were kept in 9.2-cm Petri dishes at 37° C. in the dark with no food. Larvae were monitored daily for […] and mortality (as defined by change of pigmentation and absence of response following physical stimulation) was recorded. […] Bacterial suspensions were prepared as follows: cells were grown overnight in 5 mL of Mueller Hinton broth, harvested, washed once, and resuspended in sterile 0.8% NaCl to a final OD600 of 0.1 (approximately 10^8 CFU/mL, as determined by CFU counts on serially diluted samples).

[6] = test system: MDR K. pneumoniae; assay: Galleria mellonella infection model; assay type: in vivo; conditions: 5 μl of 250 mM DMG (approx. 0.38 mg) injected five to ten minutes prior to bacterial challenge
Method: as §1, §2

[7] = oral 3 mg DMG daily, three-day treatment
[8] = oral DMG 3 mg at 24 h and 30 min before and 24 h post infection, burden three days after infection, n=8
[9] = experiment B, no supplemental metal
[10] = experiment C, no supplemental metal

Sequence of Aβ40 peptide (P05067 672-711): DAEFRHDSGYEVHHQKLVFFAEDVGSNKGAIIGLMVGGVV

Q: `CC(=NO)C(C)=NO` [DMG, dimethylglyoxime] was tested. Which mortality [1, 7] did it give?
A: 100%

Q: And the “postponement of time of death” value [1, 7]?
A: two

Q: What about the mouse survival ([1]; oral 3 mg DMG six hours post-infection then daily for nine days, n=4) of the same molecule?
A: 50%

Q: And the mouse survival ([1]; oral 3 mg DMG six hours post-infection then daily for seven days, n=8)?
A: 37.5%

Q: What about the “bacterial colonization of livers vs non-DMG treated group” value [1, 8] of the same molecule?
A: Significantly lower

Q: What about the “bacterial colonization of spleens vs non-DMG treated group” value [1, 8] of the same molecule?
A: Significantly lower

Q: And the “inhibition of Aβ40 aggregation” value ([2]; 500 mM or 1000 mM DMG (so in the source), no supplemented metal)?
A: partial or full inhibition

Q: What about the remaining activity at 100 µM ([2]; experiment A, Cu 10 μM) of the same molecule?
A: 54 ± 12%

Q: And the remaining activity at 100 µM ([2]; experiment A, Ni 10 μM)?
A: 58 ± 11%

Q: What about the remaining activity at 100 µM ([2]; experiment A, Zn 10 μM) of the same molecule?
A: 457 ± 39%

Q: And the remaining activity at 100 µM ([2]; experiment A, no supplemental metal)?
A: 33 ± 2%

Q: And the remaining activity at 100 µM ([2]; experiment B, Ni 100 μM)?
A: 410 ± 91%

Q: And the remaining activity at 100 µM [2, 9]?
A: 15 ± 14%

Q: And the remaining activity at 500 µM ([2]; experiment B, Ni 100 μM)?
A: < 1%

Q: And the remaining activity at 500 µM ([2]; experiment B, Zn 100 μM)?
A: 833 ± 156%

Q: What about the remaining activity at 500 µM [2, 9] of the same molecule?
A: < 1%

Q: What about the remaining activity at 1000 µM ([2]; experiment B, Ni 100 μM) of the same molecule?
A: < 1%

Q: What about the remaining activity at 1000 µM ([2]; experiment B, Zn 100 μM) of the same molecule?
A: 328 ± 63%

Q: What about the remaining activity at 1000 µM [2, 9] of the same molecule?
A: < 1%

Q: What about the remaining activity at 100 µM ([2]; experiment C, Cu 100 μM) of the same molecule?
A: 66 ± 15%

Q: What about the remaining activity at 100 µM [2, 10] of the same molecule?
A: 48 ± 8%

Q: What about the remaining activity at 500 µM ([2]; experiment C, Cu 100 μM) of the same molecule?
A: 49 ± 8%

Q: And the remaining activity at 500 µM [2, 10]?
A: 15 ± 5%

Q: And the remaining activity at 1000 µM ([2]; experiment C, Cu 100 μM)?
A: 40 ± 3%

Q: And the remaining activity at 1000 µM [2, 10]?
A: 21 ± 10%

Q: And the “inhibition of Aβ40 aggregation” value ([2]; increasing amounts of DMG in presence of 100 mM Cu^2+ or Zn^2+ (so in the source))?
A: partial inhibition

Q: What about the “inhibition of Aβ40 aggregation” value ([2]; increasing amounts of DMG in presence of 100 mM Ni^2+ (so in the source)) of the same molecule?
A: Complete inhibition

Q: What about the “Aβ40 peptide aggregation under all pHs tested” value ([2]; pH 6.5, 7.5 or 8.5, 25 mM Aβ40, CuSO4 25 mM, ZnSO4 10 mM or DMG 100 mM (so in the source)) of the same molecule?
A: negligible

Q: And the “increase in hydrogenase activity compared to the 1 mM DMG medium” value ([3]; 1 mM DMG + 50 μM NiCl2)?
A: 50%

Q: And the Hydrogenase activity ([3]; DMG 0.1 mM in blood-based medium, six hours, H2-enriched microaerobic, DMG D1885 (anhydrous))?
A: 14.0 ± 2.7 nmoles H2 oxidized per minute per 10^9 cells

Q: And the Hydrogenase activity ([3]; DMG 0.5 mM)?
A: 4.6 ± 1.2 nmoles H2 oxidized per minute per 10^9 cells

Q: And the Hydrogenase activity ([3]; DMG 1 mM)?
A: 3.9 ± 0.9 nmoles H2 oxidized per minute per 10^9 cells

Q: And the Hydrogenase activity ([3]; DMG 1 mM + NiCl2 0.05 mM)?
A: 6.9 ± 1.7 nmoles H2 oxidized per minute per 10^9 cells

Q: And the Hydrogenase activity ([3]; DMG 5 mM)?
A: 0.8 ± 0.1 nmoles H2 oxidized per minute per 10^9 cells

Q: What about the “effect on established (48 hours of growth) biofilm” value [4] of the same molecule?
A: able to counteract

Q: What about the “survival rate of larvae” value [5] of the same molecule?
A: 60%

Q: And the “survival rate of larvae” value [6]?
A: 40%
